This is an account of results in article PMC9569450, “Dual Effect of Tryptamine on Prostate Cancer Cell Growth Regulation: A Pilot Study” (International Journal of Molecular Sciences, 2022).

In assay [1] the test system is PC-3 cells. The assay is described as follows: Transwell migration assay, PC-3. The class given is cell-based, human. The conditions noted are these: 24 h. Here is the method: (§1) Cell migration was evaluated using 8-μm transwell filters (Costar Corning, Schiphol-Rijk, The Netherlands). Cells at a density of 5 × 10^4 were seeded to the upper chamber, and the chamber was filled with FBS-free medium. Cells were incubated overnight to allow for adherence; then, the lower chamber was replaced with 10% FBS medium as a chemo-attractant. Following a 24 h incubation, non-migrating cells on the upper surface of the insert membrane were gently removed by cotton swabs and migrated cells on the lower surface of the insert membrane were fixed by 4% paraformaldehyde and stained with 0.1% crystal violet for 20 min. Migrated cells on each membrane were photographed and counted at 100× magnification field at six random fields.

For another assay, the system named is HepG2 cells. The assay is described as follows: Transwell migration assay, HepG2. The conditions noted are these: 24 h. The class given is cell-based. Here is the method:
as §1

In assay [2] the test system is human colon cancer cell line HT29. The conditions noted are these: HT29 as in vitro model of intestinal epithelium; cited from earlier work.
Assay [3] deals with PC-3 cells. Briefly: UPLC-HRMS cell metabolomics of tryptamine-treated PC-3 cells. Type of assay: cell-based, human. Here is the method:
The cells were seeded in 10 cm Petri dishes at a density of 1 × 10^6 cells/dish. After incubation overnight for adherence, cells were subjected to treatment with tryptamine (0.3 mM) in FBS-free medium, and control samples were treated with FBS-free medium. […] For cellular metabolite extraction, cells were first washed with PBS for three times, then 8 mL extraction solvent (methanol: acetonitrile: 0.5 M formic acid, 2:2:1 v/v/v) was added for quenching and cell lysis. The mixture was vortexed and sonicated on ice for 15 min to extract metabolites, and then centrifuged at 13,000 rpm for 10 min at 4 °C. The supernatant was collected and dried under vacuum. Before analysis, the sample was reconstituted in 100 μL H2O.
The chromatographic method involved elution with water with 0.1% acetic acid (A) and acetonitrile (B). The gradient program of cell metabolomics was as follows: 0–1 min 98–99% A, 1–3 min 2–30% A, 3–8 min 30–50% A, 8–10 min 50–95% A, 10–15 min 95–95% A. The flow rate was constant at 0.3 mL/min. […] The column was maintained at 35 °C. After each run, the gradient was re-equilibrated to its initial conditions over 6 min. Sample injection volume was 10 μL. The main mass spectrometer parameters were set as follows: capillary temperature 300 °C; capillary voltage and tube lens 20 V and 35 V, respectively, for positive mode, and 40 V and 80 V, respectively, for negative mode; spray voltage 4.0 kV in positive mode, and 2.5 kV and 2.8 kV in negative mode for serum and cell metabolite profiling, respectively; auxiliary gas, sheath gas and sweep gas flow rate 10, 40, and 0 arbitrary units, respectively. Data were acquired in the m/z range of 50–1000. The resolving power was 60,000 at m/z 195. Ultra-high-purity argon (≥99.999%) was used as the collision gas in UPLC–MS/MS experiments, and normalized collision voltages were in the range of 15–55 V.
Raw data was pre-processed using Progenesis QI software version 2.4 (Nonlinear Dynamics, Waters Corporation, Milford, CT, USA), which included peak picking and alignment. A data matrix table containing metabolic peak identity (retention time (Rt and m/z pair)) and peak abundances in samples was obtained. We used our previously designed FORTRAN program for data post-processing, including analyses of adducts, in-source fragments and chloride isotopic ions, contaminant and artefact ion removal, QC-based scaling, and normalization. Principal components analysis (PCA) and oPLS-DA (orthogonal partial least squares-discriminant analysis) were applied for sample classification using the PLS Toolbox software (version 8.9.1, Eigenvector Research, Inc., Manson, WA, USA) based on Matlab R2021a (version 9.10.0, MathWorks, Natick, MA, USA). Differential metabolites were identified with p-value < 0.05 and variance importance in projection (VIP) value greater than 1. The metabolites were identified based on accurate mass matching to theoretical values within a 2 mDa tolerance and MS/MS matching with spectral data in Human Metabolome Database (HMDB) and/or manual analysis of MS/MS spectra (Figure S4). MetaboAnalyst 5.0 was used for metabolic pathway and network analyses.

The mark [4] stands for this setting: 0.3 mM, treatment/control ratio, negative = decreased.

As for `NCCc1c[nH]c2ccccc12` [Tryptamine], the “migrated cells reduced by” value with PC-3 cells [1] (PC-3, 0.075 mM) is 22%. In addition, the “percentage of migrated cells” value with PC-3 cells [1] (PC-3, 0.15 mM) was found to be 58%. For the same molecule, in the assay on PC-3 cells [1] (PC-3, 0.3 mM), the “percentage of migrated cells” value came out at 23%. In addition, in the assay with HepG2 cells (HepG2, 0.075 mM), the “migrated cells compared with the control” value is given as “no significant difference”. In addition, in the assay with HepG2 cells (HepG2, 0.15 mM), the “percentage of migrated cells” value is 77%. Moreover, the “percentage of migrated cells” value in the assay with HepG2 cells (HepG2, 0.3 mM) is 55%. Further, in assay [2], the 50% inhibitory concentration (IC50) is 670 ± 90 µM. Also, the “Fold Change of ketoleucine” value in the assay on PC-3 cells [3] (0.3 mM, treatment/control ratio) is recorded as 0. Moreover, in the assay on PC-3 cells [3] (setting [4]), the “Fold Change of arginine” value is recorded as −1.9, the “Fold Change of aspartic acid” value is on record as −3.2, the “Fold Change of creatine” value is −2.0 and the “Fold Change of pantothenic acid” value is −1.6. Further, in the assay on PC-3 cells [3] (setting [4]), the “Fold Change of proline” value is −2.0, the “Fold Change of spermidine” value was −2.1 and the “Fold Change of spermine” value was −2.1. For the same molecule, the “Fold Change of 5-HT” value in the assay on PC-3 cells [3] (0.3 mM, treatment/control ratio, positive = increased) is 1.4 × 10^3. Also, the “aspartic acid, fold decrease compared to the control group” value with PC-3 cells [3] (tryptamine treated group) came out at 3.2 fold.

One may read the IC50 as the concentration needed to halve the response being measured.
